Measured values taken from patent US20150299250A1, “MACROCYCLIC COMPOUNDS AND USES THEREOF” (ADELAIDE RESEARCH & INNOVATION PTY LTD, priority 2012, published 2015).

What was measured:
[1] = molecular target: T1, ovine calpain 1 (o-CAPN1) (Ovis aries, UniProt B2ZA85); test: Fluorometric calpain assay (BODIPY-Fl casein), ovine calpain 1; type: biochemical
T1 sequence (B2ZA85 1-716): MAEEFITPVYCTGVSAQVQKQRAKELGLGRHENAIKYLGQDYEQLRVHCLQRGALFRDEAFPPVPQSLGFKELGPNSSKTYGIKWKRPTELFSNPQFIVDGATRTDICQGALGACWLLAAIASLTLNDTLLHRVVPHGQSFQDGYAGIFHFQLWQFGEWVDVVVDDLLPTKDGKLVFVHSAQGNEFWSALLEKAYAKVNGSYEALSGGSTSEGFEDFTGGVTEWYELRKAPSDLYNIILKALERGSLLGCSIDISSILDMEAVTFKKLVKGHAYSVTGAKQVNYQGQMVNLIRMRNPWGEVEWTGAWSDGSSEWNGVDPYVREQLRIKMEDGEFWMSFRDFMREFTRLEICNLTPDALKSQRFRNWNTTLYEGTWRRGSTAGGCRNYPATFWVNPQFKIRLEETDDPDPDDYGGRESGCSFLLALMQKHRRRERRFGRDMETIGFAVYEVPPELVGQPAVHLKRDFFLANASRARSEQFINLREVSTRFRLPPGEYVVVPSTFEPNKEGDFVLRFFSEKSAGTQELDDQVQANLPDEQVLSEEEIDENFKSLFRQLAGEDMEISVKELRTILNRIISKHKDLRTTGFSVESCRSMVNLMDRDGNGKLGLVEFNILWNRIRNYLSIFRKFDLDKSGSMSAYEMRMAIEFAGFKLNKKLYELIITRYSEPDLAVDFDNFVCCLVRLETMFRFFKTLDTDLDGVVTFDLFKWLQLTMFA
T1 sequence (A0ACI6PYI8 1-265 partner): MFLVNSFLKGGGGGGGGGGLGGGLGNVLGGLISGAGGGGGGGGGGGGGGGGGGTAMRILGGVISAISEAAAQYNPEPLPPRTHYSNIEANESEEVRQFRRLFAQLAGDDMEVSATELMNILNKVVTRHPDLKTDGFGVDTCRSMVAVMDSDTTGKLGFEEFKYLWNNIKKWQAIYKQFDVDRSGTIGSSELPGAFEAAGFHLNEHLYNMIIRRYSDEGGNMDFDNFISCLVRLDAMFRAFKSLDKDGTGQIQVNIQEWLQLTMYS
Procedure: Fluorometric assays (excitation: 485 nm, emission: 520 nm) with ovine calpains 1 and 2 were done with a (BMG Labtech) Fluostar Optima plate reader at 37.0±0.2° C. in 96-well black (Greiner Bio-one) microassay plates. Calpains 1 and 2, partially purified from sheep lung by hydrophobic interaction and ion-exchange chromatography, were diluted in 20 mM MOPS, pH 7.5, containing 2 mM EGTA, 2 mM EDTA and 0.035% v/v 2-mercaptoethanol to give a linear response over the course of the assay. The substrate BODIPY-F1 casein was prepared as reported. {1} A 0.0005% solution of the substrate in 10 mM MOPS, pH 7.5, 10 mM CaCl2, 0.1 mM NaN3, 0.1% v/v 2-mercaptoethanol was prepared freshly before each experiment. […]
Inhibition studies were performed in the presence of seven different inhibitor concentrations and 1% v/v DMSO in a volume of 200 μL: 50 μl of inhibitor solution was added to a microassay well followed by 50 μl of calpain-containing solution. The reaction was initiated by adding 100 μl of BODIPY-F1 casein solution to each well and progress curves were monitored every 30 s over 570 s. Uninhibited enzyme activity was determined by adding 4% v/v DMSO in water instead of inhibitor solution. […]
The average value of rates obtained in two separate experiments, each in triplicate, was plotted versus the inhibitor concentration and IC50 values were calculated with the following equation: […]

[2] = molecular target: T2, 20S proteasome chymotrypsin-like (CT-L) activity (Oryctolagus cuniculus, UniProt G1T4Q9); test: In vitro proteasome activity assay, CT-L (Suc-LLVY-AMC); type: biochemical, rabbit; conditions: purified 20S proteasome
T2 sequence (G1T4Q9 1-263): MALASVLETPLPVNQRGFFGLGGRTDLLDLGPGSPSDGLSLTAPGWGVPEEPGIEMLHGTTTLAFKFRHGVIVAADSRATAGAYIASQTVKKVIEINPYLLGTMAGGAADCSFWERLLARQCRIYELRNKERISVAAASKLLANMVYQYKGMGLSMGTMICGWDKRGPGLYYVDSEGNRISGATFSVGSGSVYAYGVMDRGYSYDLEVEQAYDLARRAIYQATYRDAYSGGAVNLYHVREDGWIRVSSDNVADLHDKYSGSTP
Procedure: (§1) The assays were performed in vitro using purified 20S proteasome/inhibitor mixtures, with the activity of each subunit of the proteasome assessed upon incubation with its respective target peptide.
(§2) Purified rabbit 20S proteasome and fluorogenic CT-L substrate (Suc-LLVY-AMC) were purchased from Boston Biochem (Cambridge, Mass., USA). The T-L and CP-L fluorogenic substrates (Ac-RLR-AMC and Z-nLPnLD-AMC) were purchased from Enzo Life Sciences (Farmingdale, N.Y., USA). The 20S proteasome was diluted to 0.2 μg/μL in 20S proteasome buffer (50 mM HEPES pH 7.6, 150 mM NaCl and 1 mM DDT) and stored at −80° C. Purified 20S proteasome (8 ng) was pre-incubated with the indicated concentrations of inhibitors for 15 minutes and subsequently added to the AMC-labeled substrate peptide (50 μM) in assay buffer (25 mM HEPES, pH 7.5, 0.5 mM EDTA, 0.05% NP-40, and 0.001% SDS (w/v)) at 37° C. for 2 hours.

[3] = molecular target: T3, 20S proteasome T-L activity (Oryctolagus cuniculus, UniProt G1SWK8); test: In vitro proteasome activity assay, T-L (Ac-RLR-AMC); type: biochemical, rabbit; conditions: purified 20S proteasome; highest concentration tested 25,000 nM
T3 construct: purchased Boston Biochem
T3 sequence (G1SWK8 1-271): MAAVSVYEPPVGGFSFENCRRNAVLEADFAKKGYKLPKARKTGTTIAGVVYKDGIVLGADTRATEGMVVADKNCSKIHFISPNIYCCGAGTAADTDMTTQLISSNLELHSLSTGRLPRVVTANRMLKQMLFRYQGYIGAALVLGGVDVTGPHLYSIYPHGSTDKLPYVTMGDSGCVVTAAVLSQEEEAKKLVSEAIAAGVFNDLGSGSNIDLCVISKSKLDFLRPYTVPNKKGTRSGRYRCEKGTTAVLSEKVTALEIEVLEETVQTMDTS
Procedure: as §1, §2

[4] = molecular target: T4, 20S proteasome CP-L activity (Oryctolagus cuniculus, UniProt A0A5F9DQW2); test: In vitro proteasome activity assay, CP-L (Z-nLPnLD-AMC); type: biochemical, rabbit; conditions: purified 20S proteasome; highest concentration tested 25,000 nM
T4 construct: Purified rabbit 20S proteasome
Procedure: We initially determined the ability of the novel tripeptide MG132 analogues 1-6 and the macrocycles 3a and 4a to inhibit the three separate protease activities of the 20S proteasome (CT-L, -T-L and CP-L). The assays were performed in vitro using purified 20S proteasome/inhibitor mixtures, with the activity of each subunit of the proteasome assessed upon incubation with its respective target peptide. […] In addition, there is no apparent clear-cut preference for the length of tether (compare compounds 1 to 4), while the introduction of an aryl group at P3 (as in 6) is well tolerated.
as §2, with “hours. Fluorescent substrate cleavage by the 20S proteasome was linear during this incubation timeframe (Supplementary Figure S4. Hydrolysed 7-amino-4-methylcoumarin (AMC) was subsequently detected with the FLUOstar OPTIMA microplatefluorometer at excitation/emission of 390/460 nm. The activity was estimated in relative fluorescence units and half of the maximal inhibitory activity of the proteasome is represented by IC50 values. A minimum of three biological replicates were performed for each data point.” for “hours.”

[5] = system: WE-68 Ewing's sarcoma cells; test: Cell viability assay (7AAD, 48 hours), WE-68; type: cell-based; conditions: 48 hours exposure; read-out: Cancer cell lines IC50 (μM) WE-68
Procedure: (§3) Cell viability assays were performed as previously described. Briefly, cells were seeded in 96 well microtiterplates at a density of 3×10^4 cells per well in the presence of the indicated chemical. Cells were harvested 48 hours post-treatment, centrifuged at 1,300×g, washed in phosphate-buffered saline (PBS) and stained with 7AAD solution (2 μg/mL) (7-amino-actinomycin-D, Invitrogen, Carlsbad, Calif.) for 10 mins at room temperature. Viable cells were determined with the use of a FACS Calibur flow cytometer (Becton Dickinson Immunocytometry Systems), and analyzed with the use of FLOWJO (Tree Star, Inc) and GraphPad Prism (GraphPad Software Inc).
(§4) WE-68 and VH-64 Ewing's sarcoma cells were kindly supplied by F. van Valen (Department of Orthopaedic Surgery, Westfalische-Wilhelms-University, Germany).TC-252 and STA-ET-1 Ewing's sarcoma cells were kindly provided by G. Hamilton (Department of Surgery, University of Vienna, Austria) or P. Ambros (Children's Cancer Research Institute, St Anna Children's Hospital, Vienna, Austria). Primary human embryonic fibroblasts or primary human osteoblasts were collected from the Women's and Children's Hospital (North Adelaide, South Australia, Australia) or Royal Adelaide Hospital with patient consent. Mouse Embryonic Fibroblasts (MEFs) and its p53-null derivative were kindly supplied by Guillermina Lozano (Department of Genetics, Anderson Cancer Centre, University of Texas, Houston, Tex., USA). WE-68 cell lines were grown in RPMI-1640 media, whilst human embryonic fibroblasts and MEFs were grown in Dulbecco's Modified Eagle's Medium (DMEM). Media was supplemented with 10% FCS, 1% PSG and 10 mM HEPES. All cells were maintained at 37° C. in a humidified atmosphere of 5% CO2.

[6] = system: VH-64 Ewing's sarcoma cells; test: Cell viability assay (7AAD, 48 hours), VH-64; type: cell-based; conditions: 48 hours exposure; read-out: Cancer cell lines IC50 (μM) VH-64
Procedure: as §3, §4

[7] = system: STA-ET-1 Ewing's sarcoma cells; test: Cell viability assay (7AAD, 48 hours), STA-ET-1; type: cell-based; conditions: 48 hours exposure; read-out: Cancer cell lines IC50 (μM) STA-ET-1
Procedure: as §3, §4

[8] = system: TC-252 Ewing's sarcoma cells; test: Cell viability assay (7AAD, 48 hours), TC-252; type: cell-based; conditions: 48 hours exposure; read-out: Cancer cell lines IC50 (μM) TC-252
Procedure: as §3, §4

[9] = system: primary human embryonic fibroblasts; test: Cell viability assay (7AAD, 48 hours), normal fibroblasts; type: cell-based; conditions: Fibroblast, 48 hours exposure, read-out: Normal cell lines IC50 (μM) Fibroblasts
Procedure: as §3, §4

[10] = system: primary human osteoblasts; test: Cell viability assay (7AAD, 48 hours), normal osteoblasts; type: cell-based; conditions: Osteoblast, 48 hours exposure, read-out: Normal cell lines IC50 (μM) Osteoblasts
Procedure: as §3, §4

[11] = system: panel of sarcoma cell lines (WE-68, VH-64, STA-ET-1, TC-252); test: Cell viability assay, panel of four sarcoma cell lines (average); type: cell-based
Procedure: as §3, §4

[12] = system: normal cell lines (fibroblasts, osteoblasts); test: Cell viability assay, normal cell lines (average); type: cell-based; conditions: Homo sapiens; average of fibroblasts and osteoblasts
Procedure: as §3, §4

T4 sequence (A0A5F9DQW2 1-212): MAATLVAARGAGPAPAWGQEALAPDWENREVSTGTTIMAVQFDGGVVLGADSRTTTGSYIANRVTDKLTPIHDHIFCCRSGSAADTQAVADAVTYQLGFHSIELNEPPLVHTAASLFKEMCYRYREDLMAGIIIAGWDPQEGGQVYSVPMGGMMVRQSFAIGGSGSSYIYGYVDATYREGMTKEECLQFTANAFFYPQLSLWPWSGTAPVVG

Row | IC50 [2] | IC50 [3] | IC50 [4] | IC50 [5] | IC50 [6] | IC50 [7] | IC50 [8] | IC50 ([11]; average of four sarcoma cell lines, read-out: Average IC50 for cancer cell lines) | melting point | Compound | isoform selectivity o-CAPN2 vs. o-CAPN1 [1] | IC50 [9] | IC50 [10] | Therapeutic window ([11]; fold change in potency (IC50) against cancer cell line versus normal cell line) | IC50 [12]
1 | – | – | – | – | – | – | – | – | – | CC(C)CC(C=O)NC(=O)C1CCCCOc2ccc(cc2)CCC(=O)c2ccc([nH]2)C(=O)N1 (stereo not drawn) [Compound 2c] | no isoform selectivity | – | – | – | –
2 | – | – | – | – | – | – | – | – | – | CC(C)C[C@@H](C=O)NC(=O)[C@@H]1CCCCCCCCCCCC(=O)c2ccc([nH]2)C(=O)N1 [Compound 1c, (S)—N—((S)-4-methyl-1-oxopentan-2-yl)-2,16-dioxo-3,20-diazabicyclo[15.2.1]icosa-1(19),17-diene-4-carboxamide] | no isoform selectivity | – | – | – | –
3 | 34 nM | > 25000 nM | > 25000 nM | 4.5 µM | 5.8 µM | 6.5 µM | 5 µM | 5.4 µM | 71 to 73 °C | C#CCOc1ccc(C[C@@H](C=O)NC(=O)[C@H](CC(C)C)NC(=O)[C@H](CN=[N+]=[N-])NC(=O)OCc2ccccc2)cc1 [Compound 1] | – | 12.2 µM | 23.7 µM | ×3.3 | 18 µM
